This is an account of results in patent publication US10710994B2, “Oxadiazole transient receptor potential channel inhibitors” (Genentech, Inc., priority 2018, dated 2020).

Like-named read-outs stand apart in the source and are kept apart here.

The target of the assay is human TRPA1 channel (Homo sapiens (Human), UniProt O75762). The experiment in a line: hTRPA1 CHO Ca2+ FLIPR Tetra assay: block of cinnamaldehyde induced calcium influx. The note with it: CHO cells expressing TRPA1, Hill coefficient fixed to 1.5. It is filed as cell-based. The essentials: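 TRPA1-expressing CHO cells loaded with calcium indicator dye (1 h 37° C, then 15 min room temperature) in HBSS/20 mM HEPES pH 7.4/0.02% BSA. IC50 from fits with fixed Hill coefficient.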

Setting [1] is: read-out: hTRPA1 IC50 10 min, 10 minutes incubation with compound before cinnamaldehyde (about EC80).
Setting [2] is: read-out: hTRPA1 IC50 90 min, 90 minutes incubation with compound before cinnamaldehyde (about EC80).

Sequence of human TRPA1 channel (O75762 whole entry): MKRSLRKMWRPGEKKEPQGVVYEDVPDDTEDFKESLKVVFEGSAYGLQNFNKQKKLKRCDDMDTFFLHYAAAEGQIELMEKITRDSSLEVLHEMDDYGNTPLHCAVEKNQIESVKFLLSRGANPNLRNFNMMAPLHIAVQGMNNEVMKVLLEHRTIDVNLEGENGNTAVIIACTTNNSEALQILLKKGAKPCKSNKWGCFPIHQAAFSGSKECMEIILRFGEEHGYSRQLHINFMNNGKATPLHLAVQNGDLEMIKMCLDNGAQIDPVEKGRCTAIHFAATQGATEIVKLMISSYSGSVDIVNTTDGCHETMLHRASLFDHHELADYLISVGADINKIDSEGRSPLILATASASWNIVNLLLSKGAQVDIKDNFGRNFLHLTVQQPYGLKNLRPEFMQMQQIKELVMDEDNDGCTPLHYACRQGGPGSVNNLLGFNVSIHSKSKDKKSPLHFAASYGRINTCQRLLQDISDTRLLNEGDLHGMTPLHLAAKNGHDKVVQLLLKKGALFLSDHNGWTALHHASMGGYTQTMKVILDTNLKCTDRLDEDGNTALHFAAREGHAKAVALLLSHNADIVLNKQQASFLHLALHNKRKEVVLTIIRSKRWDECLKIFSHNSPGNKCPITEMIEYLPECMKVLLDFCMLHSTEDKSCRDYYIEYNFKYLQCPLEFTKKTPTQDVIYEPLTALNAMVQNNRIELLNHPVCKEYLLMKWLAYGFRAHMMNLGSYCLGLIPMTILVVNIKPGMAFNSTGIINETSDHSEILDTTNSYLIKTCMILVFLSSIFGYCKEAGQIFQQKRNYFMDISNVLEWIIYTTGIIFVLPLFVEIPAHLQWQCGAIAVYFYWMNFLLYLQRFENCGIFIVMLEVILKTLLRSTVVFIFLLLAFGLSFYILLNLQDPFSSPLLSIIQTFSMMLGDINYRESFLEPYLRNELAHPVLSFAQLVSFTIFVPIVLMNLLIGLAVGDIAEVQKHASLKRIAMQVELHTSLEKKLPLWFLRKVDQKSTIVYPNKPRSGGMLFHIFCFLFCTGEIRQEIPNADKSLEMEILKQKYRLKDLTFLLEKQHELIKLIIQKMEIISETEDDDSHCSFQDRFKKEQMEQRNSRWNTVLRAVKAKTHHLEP

Take `Cc1c(=O)ncn2cnn(Cc3nc([C@@H]4CO[C@@H](c5ccc(Cl)cc5)C4)no3)c(=O)c12` [Example 47, 2-((3-((3R,5R)-5-(4-chlorophenyl)tetra-hydrofuran-3-yl)-1,2,4-oxadiazol-5-yl)methyl)-9-methyl-2H-pyrimido[1,6-d][1,2,4] triazine-1,8-dione]: the IC50 under setting [1] is 332 nM and the IC50 under setting [2] was found to be 240 nM.
Consider `Cc1cnn2ncn(Cc3nc([C@@H]4CO[C@@H](c5ccc(Cl)cc5)C4)no3)c(=O)c12` [Example 48, 3-((3-((3R,5R)-5-(4-chlorophenyl)tetra-hydrofuran-3-yl)-1,2,4-oxadiazol-5-yl)methyl)-5-methylpyrazolo[5,1-f][1,2,4]triazin-4(3H)-one], for which the IC50 reads like this: under setting [1], 1.2 nM; under setting [2], 0.8 nM.
On to `Cc1ccc(=O)n2ccn(Cc3nc([C@@H]4CO[C@@H](c5ccc(Cl)cc5)C4)no3)c(=O)c12` [Example 49, 2-((3-((3R,5R)-5-(4-chlorophenyl)tetrahydro-furan-3-yl)-1,2,4-oxadiazol-5-yl)methyl)-9-methyl-2H-pyrido[1,2-a]pyrazine-1,6-dione], for which the IC50 under setting [2] came out at 4.3 nM.
Take `Cn1c(=O)c2c(ncn2Cc2nc([C@@H]3CO[C@@H](c4ccc(Cl)cc4)C3)no2)n(C)c1=O` [Example 50, 7-((3-((3R,5R)-5-(4-chlorophenyl)tetrahydro-furan-3-yl)-1,2,4-oxadiazol-5-yl)methyl)-1,3-dimethyl-3,7-dihydro-1H-purine-2,6-dione]: the half-inhibitory concentration (IC50) is, setting by setting: under setting [1], 50.8 nM; under setting [2], 57 nM.
In the same order, the values of `Cn1c(NCc2ccccn2)nc2ncn(Cc3nc([C@@H]4CO[C@@H](c5ccc(Cl)cc5)C4)no3)c(=O)c21` [Example 51] are 40.1 nM and 29 nM.
In the case of `COc1nccc2c(=O)n(Cc3nc([C@@H]4CO[C@@H](c5ccc(Cl)cc5)C4)no3)cnc12` [Example 52, 3-((3-((3R,5R)-5-(4-chlorophenyl)tetrahydro-furan-3-yl)-1,2,4-oxadiazol-5-yl)methyl)-8-methoxypyrido[3,4-d]pyrimidin-4(3H)-one], the IC50 came out at 95.1 nM under setting [1] and 140 nM under setting [2].
For `Cn1cnc2ncn(Cc3nc([C@@H]4CO[C@@H](c5ccc6ncsc6c5)C4)no3)c(=O)c21` [Example 53, 1-((3-((3R,5R)-5-(benzo[d]thiazol-6-yl)tetrahydrofuran-3-yl)-1,2,4-oxadiazol-5-yl)methyl)-7-methyl-1,7-dihydro-6H-purin-6-one], the half-maximal inhibitory concentration (IC50) under setting [1] was found to be 146 nM and the IC50 under setting [2] is 88 nM.
As to `Cc1ccnc2ncn(Cc3nc([C@@H]4CO[C@@H](c5ccc(Cl)cc5)C4)no3)c(=O)c12` [Example 54, 3-((3-((3R,5R)-5-(4-chlorophenyl)tetrahydro-furan-3-yl)-1,2,4-oxadiazol-5-yl)methyl)-5-methylpyrido[2,3-d] pyrimidin-4(3H)-one], the IC50 is, setting by setting: under setting [1], 2.14 nM; under setting [2], 0.73 nM.
For `Cn1cnc2ncn(Cc3nc([C@@H]4CO[C@@H](c5ccc(Cl)cc5)C4)no3)c2c1=O` [Example 55, 7-((3-((3R,5R)-5-(4-chlorophenyl)tetrahydro-furan-3-yl)-1,2,4-oxadiazol-5-yl)methyl)-1-methyl-1,7-dihydro-6H-purin-6-one] the same measures were 19 nM and 12 nM.
In the same order, the values of `Cn1cnc2ccn(Cc3nc([C@@H]4CO[C@@H](c5ccc(F)cc5)C4)no3)c(=O)c21` [Example 56, 5-((3-((3R,5R)-5-(4-fluorophenyl)tetrahydro-furan-3-yl)-1,2,4-oxadiazol-5-yl)methyl)-3-methyl-3,5-dihydro-4H-imidazo[4,5-c]pyridin-4-one] are 6.76 nM and 1.9 nM.
On to `Cn1cnc2cnn(Cc3nc([C@@H]4CO[C@@H](c5ccc(Cl)cc5)C4)no3)c(=O)c21` [Example 57, 5-((3-((3R,5R)-5-(4-chlorophenyl)tetrahydro-furan-3-yl)-1,2,4-oxadiazol-5-yl)methyl)-3-methyl-3,5-dihydro-4H-imidazo[4,5-d] pyridazin-4-one], for which the IC50 by setting is: under setting [1], 38.8 nM; under setting [2], 18 nM.
Turning to `Cc1ccnc2ncn(Cc3nc([C@@H]4CO[C@@H](c5ccc(Cl)cc5)C4)no3)c(=O)c12` [Example 58, 3-((3-((3R,5R)-5-(4-chlorophenyl)tetrahydro-furan-3-yl)-1,2,4-oxadiazol-5-yl)methyl)-5-methylpyrido[2,3-d] pyrimidin-4(3H)-one], the concentration for half-maximal inhibition (IC50) runs as follows: under setting [1], 69 nM; under setting [2], 52 nM.
Turning to `Cn1cnc2ncn(Cc3nc([C@@H]4CO[C@@H](c5ccc(Cl)cc5)C4)no3)c(=S)c21` [Example 59, 1-((3-((3R,5R)-5-(4-chlorophenyl)tetrahydro-furan-3-yl)-1,2,4-oxadiazol-5-yl)methyl)-7-methyl-1,7-dihydro-6H-purine-6-thione], the IC50 runs as follows: under setting [1], 4.16 nM; under setting [2], 3 nM.
As to `Nc1ccc2c(=O)n(Cc3nc([C@@H]4CO[C@@H](c5ccc(F)cc5)C4)no3)cnc2n1` [Example 60, 7-amino-3-((3-((3R,5R)-5-(4-fluorophenyl)tetrahydrofuran-3-yl)-1,2,4-oxadiazol-5-yl)methyl)pyrido[2,3-d] pyrimidin-4(3H)-one], the IC50 turned out to be 15.6 nM under setting [1] and 12 nM under setting [2].
Turning to `Cn1nnc2ccn(Cc3nc([C@@H]4CO[C@@H](c5ccc(Cl)cc5)C4)no3)c(=O)c21` [Example 61, 5-((3-((3R,5R)-5-(4-chlorophenyl)tetrahydro-furan-3-yl)-1,2,4-oxadiazol-5-yl)methyl)-3-methyl-3,5-dihydro-4H-[1,2,3]triazolo[4,5-c]pyridin-4-one], the IC50 by setting is: under setting [1], 4.65 nM; under setting [2], 2.1 nM.
In the same order, the values of `Nc1nc2ncccc2c(=O)n1Cc1nc([C@@H]2CO[C@@H](c3ccc(Cl)cc3)C2)no1` [Example 62, 2-amino-3-((3-((3R,5R)-5-(4-chlorophenyl)tetrahydrofuran-3-yl)-1,2,4-oxadiazol-5-yl)methyl)pyrido[2,3-d] pyrimidin-4(3H)-one] are 8.29 nM and 2.7 nM.
In the same order, the values of `Cc1cc(=O)nc2ccn(Cc3nc([C@@H]4CO[C@@H](c5ccc(Cl)cc5)C4)no3)c(=O)n12` [Example 63] are 9.26 nM and 2.8 nM.
For `Cc1ncn2ncn(Cc3nc([C@@H]4CO[C@@H](c5ccc(Cl)cc5)C4)no3)c(=O)c12` [Example 64, 3-((3-((3R,5R)-5-(4-chlorophenyl)tetrahydro-furan-3-yl)-1,2,4-oxadiazol-5-yl)methyl)-5-methylimidazo[1,5-f] [1,2,4]triazin-4(3H)-one] the same measures were 20.6 nM and 15 nM.
As to `COc1ccc([C@H]2C[C@H](c3noc(Cn4cnc5ncn(C)c5c4=O)n3)CO2)cc1` [Example 65, 1-((3-((3R,5R)-5-(4-methoxyphenyl)tetrahydrofuran-3-yl)-1,2,4-oxadiazol-5-yl)methyl)-7-methyl-1,7-dihydro-6H-purin-6-one], the IC50 by setting is: (hTRPA1 IC50 10 min, 10 minutes incubation with compound before cinnamaldehyde (about EC80)) 137 nM; (hTRPA1 IC50 90 min, 90 minutes incubation with compound before cinnamaldehyde (about EC80)) 67 nM.
As to `Cc1cnn2ncn(Cc3nc([C@@H]4CO[C@@H](c5ccc(F)cc5)C4)no3)c(=O)c12` [Example 66, 3-((3-((3R,5R)-5-(4-fluorophenyl)tetrahydro-furan-3-yl)-1,2,4-oxadiazol-5-yl)methyl)-5-methylpyrazolo[5,1-f] [1,2,4]triazin-4(3H)-one], the IC50 turned out to be 8.47 nM under setting [1] and 1.6 nM under setting [2].
Take `Cc1cncc2ncn(Cc3nc([C@@H]4CO[C@@H](c5ccc(F)cc5)C4)no3)c(=O)c12` [Example 67, 3-((3-((3R,5R)-5-(4-fluorophenyl)tetrahydro-furan-3-yl)-1,2,4-oxadiazol-5-yl)methyl)-5-methylpyrido[3,4-d] pyrimidin-4(3H)-one]: the IC50 worked out at 10.7 nM under setting [1] and 1.2 nM under setting [2].
As to `Cn1cnc2ncn(Cc3nc([C@@H]4CO[C@@H](c5ccc(C6CC6)cc5)C4)no3)c(=O)c21` [Example 68, 1-((3-((3R,5R)-5-(4-cyclopropylphenyl)tetrahydrofuran-3-yl)-1,2,4-oxadiazol-5-yl)methyl)-7-methyl-1,7-dihydro-6H-purin-6-one], the IC50 worked out at 46 nM under setting [1] and 27 nM under setting [2].
In the same order, the values of `Cn1cnc2ncn(Cc3nc([C@@H]4CO[C@@H](c5ccc(F)cc5)C4)no3)c2c1=O` [Example 69, 7-((3-((3R,5R)-5-(4-fluorophenyl)tetrahydro-furan-3-yl)-1,2,4-oxadiazol-5-yl)methyl)-1-methyl-1,7-dihydro-6H-purin-6-one] are 59.5 nM and 34 nM.
In the same order, the values of `Cn1cnc2nc(N)n(Cc3nc([C@@H]4CO[C@@H](c5ccc(Cl)cc5)C4)no3)c(=O)c21` [Example 71, 2-amino-1-((3-((3R,5R)-5-(4-chlorophenyl)tetrahydrofuran-3-yl)-1,2,4-oxadiazol-5-yl)methyl)-7-methyl-1,7-dihydro-6H-purin-6-one] are 18.4 nM and 1.5 nM.
Consider `O=c1c2c(ncn1Cc1nc([C@@H]3CO[C@@H](c4ccc(Cl)cc4)C3)no1)CNCC2` [Example 73, 3-((3-((3R,5R)-5-(4-chlorophenyl)tetrahydro-furan-3-yl)-1,2,4-oxadiazol-5-yl)methyl)-5,6,7,8-tetrahydropyrido [3,4-d]pyrimidin-4(3H)-one], for which the 50% inhibitory concentration (IC50) under setting [2] was 22 nM.
